Measurements from patent US20210106703A1, “RADIOIMMUNOCONJUGATES IN COMBINATION WITH OTHER DRUGS AS TREATMENT AGAINST NHL” (Nordic Nanovector ASA, priority 2017, published 2021).
Entries after “also recorded” stand apart in the source; their conditions may differ.

B1: lilotomab: murine anti-CD37 IgG1 mAb (antibody, chains of the INN, looked up, V domains shown)
VH: EIQLQQSGPELVKPGASVKVSCKASGYSFTDYNMYWVKQSHGKSLEWIGYIDPYNGDTTYNQKFKGKATLTVDKSSSTAFIHLNSLTSEDSAVYYCARSPYGHYAMDYWGQGTSVTVSS
VL: DIVMTQSHKLLSTSVGDRVSITCKASQDVSTAVDWYQQKPGQSPKLLINWASTRHTGVPDRFTGSGSGTDYTLTISSMQAEDLALYYCRQHYSTPFTFGSGTKLEIK

Tests used:
Rec-1 cells [1] = assay: Cell cycle analysis (PI, Muse flow cytometer); assay type: cell-based, human; conditions: Rec-1, 1 μM inhibitor + ^177Lu-lilotomab, versus ^177Lu-lilotomab alone or untreated
Description: (§1) Cells were harvested at day 0, 2 h, 18 h, 1 d, 2 d, 3 d, of RIT then fixed in 70% ethanol at −20° C. for 3 hours and stained with Cell Cycle kit (with PI) reagent from Merck Millipore in the dark for 30 min at room temperature before analysis using a Muse® flow cytometer. The percentage of cells in G0/G1, S and G2/M phases was then calculated (mean of three experiments in triplicate).
(§2) At different times after start of incubation, proteins were extracted to measure the CDK1 phosphorylation levels, in parallel, proliferation was determined and at 18 h and 24 h after start of incubation, the percentage of cells in G2/M was assessed (experiments were performed three time except the cell cycle analysis).
(§3) Cells were harvested at 0 h, 2 h, 18 h, 1 d, 2 d, 3 d, and fixed in 70% ethanol at −20° C. for at least 3 h. After staining with the Muse® Cell Cycle Assay Kit (Merck Millipore, Molsheim, France) using propidium iodide in the dark at room temperature for 30 min, cell cycle distribution was analyzed using a Muse® flow cytometer. The percentage of cells in the G0/G1, S and G2/M was calculated (mean of three experiments in triplicate) and the effect of WEE-1 and MYT-1 kinase inhibitors on the cell cycle was assessed.

Ramos cells [2] = assay: Cell cycle analysis (PI, Muse flow cytometer); assay type: cell-based, human; conditions: 1 μM inhibitor + ^177Lu-lilotomab, versus ^177Lu-lilotomab alone or untreated
Description: as §1, §2, §3

DOHH2 cells [3] = assay: Cell cycle analysis (PI, Muse flow cytometer); assay type: cell-based, human; conditions: DOHH2, 1 μM inhibitor + ^177Lu-lilotomab, versus ^177Lu-lilotomab alone or untreated
Description: as §1, §2, §3

Ramos cells [4] = assay: Proliferation study with Wee-1/Myt-1 inhibitors and ^177Lu-lilotomab; assay type: cell-based, human; conditions: inhibitor 1 μM + ^177Lu-lilotomab 6 MBq/mL (RIT) for 18 h, 6 days after start
Description: (§4) Cells were treated for 18 h with 1 μM of the selective Wee-1 kinase inhibitor MK-1775 (Selleckchem, Houston, USA) or of the dual Wee-1/Myt-1 inhibitor PD-166285 (EMD Merck Millipore/Calbiochem, Molsheim, France) alone or in combination with 6 MBq/mL, 2 MBq/mL and 0.5 MB/mL of ^177Lu-lilotomab for Ramos, Rec-1 and DOHH2 cells respectively. At different times after start of incubation, proteins were extracted to measure the CDK1 phosphorylation levels, in parallel, proliferation was determined and at 18 h and 24 h after start of incubation, the percentage of cells in G2/M was assessed (experiments were performed three time except the cell cycle analysis).
(§5) The activity used for the treatment with ^177Lu-lilotomab was chosen to decrease the proliferation to about 50% for the three cell lines compared with non-treated cells.
(§6) Inhibition of G2/M cell cycle arrest radiosensitises radioresistant Ramos model. The Bliss independence mathematical model was next used to investigate the role of MK-1775 or PD-166285 on the response to ^177Lu-lilotomab. A theoretical therapeutic efficacy was calculated for the two combinations (MK-1775 or PD-166285) in the three cell lines. And the comparison between the experimental and the theoretical curves was done.
(§7) Theoretical efficacyRIT+inhib=EfficacyRIT+Efficacyinhib−(EfficacyRIT×Efficacyinhib)

DOHH2 cells [5] = assay: as above; assay type: cell-based, human; conditions: DOHH2, inhibitor alone 1 μM for 18 h, 6 days after start
Description: as §4, §5, §6, §7

OCI-Ly8 cells = assay: Cell cycle analysis (PI, Muse flow cytometer); assay type: cell-based, human; conditions: OCI-Ly8, 1 μM inhibitor + ^177Lu-lilotomab, versus ^177Lu-lilotomab alone
Description: as §3, with “[…],” for “h, 2 h, 18 h, 1 d, 2 d, 3 d,”, “-20°” for “−20°”

CD37 receptor = biological target: T1, CD37 receptor (Homo sapiens, UniProt P11049); conditions: cited from earlier work
T1 sequence (P11049 1-281): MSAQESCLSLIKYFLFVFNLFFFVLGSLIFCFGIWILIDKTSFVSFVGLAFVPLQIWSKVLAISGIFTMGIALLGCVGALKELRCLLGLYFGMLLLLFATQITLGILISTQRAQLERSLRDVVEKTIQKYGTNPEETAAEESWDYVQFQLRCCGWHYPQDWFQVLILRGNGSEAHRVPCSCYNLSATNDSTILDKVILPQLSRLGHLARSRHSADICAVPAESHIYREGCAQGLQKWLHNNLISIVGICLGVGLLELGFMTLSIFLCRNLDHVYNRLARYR

OCI-Ly8 tumor xenografts = assay: Treatment of mice with tumor xenografts; conditions: single agent
Rec-1 cells [6] = assay: Apoptosis induction (Annexin V/7-AAD, Muse flow cytometer); assay type: cell-based, human; conditions: Rec-1, 18 h exposure to unlabelled mAb, at peak time
Description: (§8) Cells were harvested at 0, 2 h, 18 h, 1 d, 2 d, 3 d of RIT. At each time point, apoptosis was detected with […] from Merck Millipore (Annexin V Kit with 7-AAD) in the dark for 30 min at room temperature before analysis using Muse® flow cytometer

Ramos cells [7] = assay: as above; assay type: cell-based, human; conditions: 18 h exposure to unlabelled mAb, at peak time
Description: as §8

DOHH2 cells [8] = assay: as above; assay type: cell-based, human; conditions: DOHH2, 18 h exposure to unlabelled mAb, plateau at 18 h
Description: as §8

Row | Molecule | Proportion of cells in G2/M, inhibitor combined with ^177Lu-lilotomab (Rec-1 cells [1]) | Proportion of cells in G2/M, inhibitor combined with ^177Lu-lilotomab (Ramos cells [2]) | Proportion of cells in G2/M, inhibitor combined with ^177Lu-lilotomab (DOHH2 cells [3]) | Proliferation (treated/untreated cells) (Ramos cells [4]) [%] | Proliferation (treated/untreated cells) (DOHH2 cells [5]) [%] | Proportion of cells in G2/M, inhibitor combined with ^177Lu-lilotomab (OCI-Ly8 cells) | Equilibrium dissociation constant (CD37 receptor) | Therapeutic efficacy compared with control (OCI-Ly8 tumor xenografts) | Apoptosis level (Rec-1 cells [6]) | Apoptosis level (Ramos cells [7]) | Apoptosis level (DOHH2 cells [8])
1 | CCN(CC)CCOc1ccc(Nc2ncc3cc(-c4c(Cl)cccc4Cl)c(=O)n(C)c3n2)cc1 [PD-166285] | reduction of the fraction of G2/M cells | reduction of the fraction of G2/M cells | higher than that induced by the combination with the MK-1775; also recorded: reduction of the fraction of G2/M cells | ~10 | 18 | reduction of the fraction of G2/M cells |  |  |  |  | 
2 | B1 |  |  |  |  |  |  | nanomolar | no therapeutic efficacy | No apoptosis was induced | No apoptosis was induced | No apoptosis was induced
